{"source": "patent US10682339B2", "about": "“Pharmaceutical compositions directly targeting FKBP52 for the treatment of prostate cancer and methods of using same” (THE BOARD OF REGENTS OF THE UNIVERSITY OF TEXAS SYSTEM, priority 2014, dated 2020)", "key": {"AR": {"test_system": "AR", "assay": "AR-mediated luciferase reporter assay in MDA-kb2 cells", "format": "cell-based", "settings": "among 40 hits from the virtual screen", "description": "(§1) FIG. 3. The FKBP52-specific inhibitor GMC1 inhibits AR and GR activity. (A) Representative AR- and GR-mediated luciferase reporter assays in MDA-kb2 cells with a range of GMC1 concentrations. The average IC50 from 4 independent experiments are shown. (B) A representative luciferase reporter assay in 52KO mouse embryonic fibroblast cells in the presence or absence of FKBP52 were performed. Transfected cells were treated with DHT and a range of concentrations of GMC1 and assessed for AR-dependent expression of a luciferase reporter. The average IC50 of 3 independent assays is shown. (C-D) ELISA assays measuring androgen-dependent PSA secretion form LNCaP (C) and 22Rv1 (D) prostate cancer cells treated with the indicated concentrations of GMC1."}, "GR": {"test_system": "GR", "assay": "GR-mediated luciferase reporter assay in MDA-kb2 cells", "format": "cell-based", "description": "as §1"}, "[1]": {"test_system": "FKBP52-regulated AR activity", "assay": "AR-dependent luciferase reporter assay in 52KO mouse embryonic fibroblast cells with or without FKBP52", "format": "cell-based", "settings": "52KO MEF cells, DHT treated", "description": "as §1"}, "[2]": {"test_system": "LNCaP prostate cancer cells", "assay": "ELISA of androgen-dependent PSA secretion from LNCaP cells", "format": "cell-based", "settings": "preliminary", "description": "as §1"}, "[3]": {"test_system": "22Rv1 prostate cancer cells", "assay": "ELISA of PSA secretion from 22Rv1 cells in the presence and absence of hormone", "format": "cell-based", "settings": "for inhibition of hormone-independent PSA secretion (ELISA): absence of hormone", "description": "as §1\n(§2) FIG. 4. GMC1 inhibits hormone-dependent and +independent PSA secretion and hormone dependent proliferation in 22Rv1 prostate cancer cells. (A) ELISA assay in 22Rv1 cells measuring GMC1 effects on PSA secretion in the presence and absence of hormone. (B) qPCR assay in 22Rv1 cells measuring endogenous PSA gene expression in the presence or absence of hormone. For comparison, GMC1, but not MJC13, inhibits hormone-independent PSA secretion and/or expression. (C) A BrdU incorporation assay was used to assess GMC1 effects on hormone-dependent 22Rv1 cell proliferation."}, "[4]": {"test_system": "22Rv1 prostate cancer cells", "assay": "qPCR of endogenous PSA gene expression in 22Rv1 cells", "format": "cell-based", "settings": "absence of hormone", "from_the_text": "as §2"}, "[5]": {"test_system": "22Rv1 prostate cancer cells", "assay": "BrdU incorporation assay of hormone-dependent 22Rv1 cell proliferation", "format": "cell-based", "settings": "22Rv1 cells", "from_the_text": "as §2"}, "[6]": {"molecular_target": "T1, β-catenin interaction with AR (Homo sapiens, UniProt P10275)", "T1 sequence (P10275 1-920)": "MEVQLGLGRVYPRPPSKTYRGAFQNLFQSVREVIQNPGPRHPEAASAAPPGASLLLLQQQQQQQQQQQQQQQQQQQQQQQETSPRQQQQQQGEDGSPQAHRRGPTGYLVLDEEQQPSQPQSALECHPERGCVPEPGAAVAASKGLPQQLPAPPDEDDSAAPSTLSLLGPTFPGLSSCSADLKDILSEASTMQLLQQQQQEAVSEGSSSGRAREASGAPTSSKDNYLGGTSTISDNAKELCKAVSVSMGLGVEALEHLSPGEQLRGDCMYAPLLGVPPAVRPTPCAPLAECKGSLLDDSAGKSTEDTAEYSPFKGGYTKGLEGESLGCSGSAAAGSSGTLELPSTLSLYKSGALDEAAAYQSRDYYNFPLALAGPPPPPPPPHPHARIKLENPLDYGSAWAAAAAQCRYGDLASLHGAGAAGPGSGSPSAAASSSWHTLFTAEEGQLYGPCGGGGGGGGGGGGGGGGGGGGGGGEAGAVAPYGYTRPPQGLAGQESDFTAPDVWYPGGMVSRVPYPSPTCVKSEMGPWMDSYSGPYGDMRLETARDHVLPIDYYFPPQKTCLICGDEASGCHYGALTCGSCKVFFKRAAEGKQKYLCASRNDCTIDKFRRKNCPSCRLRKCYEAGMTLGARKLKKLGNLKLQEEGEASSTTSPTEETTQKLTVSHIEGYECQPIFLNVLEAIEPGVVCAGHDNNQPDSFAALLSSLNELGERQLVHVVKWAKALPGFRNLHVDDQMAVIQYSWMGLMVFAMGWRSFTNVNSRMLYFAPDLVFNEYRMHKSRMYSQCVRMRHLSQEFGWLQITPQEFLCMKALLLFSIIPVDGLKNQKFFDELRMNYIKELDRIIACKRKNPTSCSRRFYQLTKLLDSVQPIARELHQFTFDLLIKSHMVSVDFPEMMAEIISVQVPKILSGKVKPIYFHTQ", "assay": "β-catenin interaction with AR", "settings": "targeting to the AR BF3 surface", "from_the_text": "MJC13 is described as an inhibitor of FKBP52-regulated AR activity (De Leon et. al. 2011. PNAS. 108 (29): 11878-83) by targeting the AR BF3 surface. A novel mechanism is disclosed by which FKBP52 and β-catenin interact to co-regulate AR activity in prostate cancer cells. […] Specific small molecules docked within the PPIase pocket affect proline-rich loop conformation and interactions. […] Thus, small molecules predicted to target the FKBP52 PPIase pocket have been identified in the disclosed embodiments."}, "[7]": {"test_system": "human prostate cancer cell lines", "settings": "cited from earlier work"}, "[8]": {"test_system": "prostate cancer xenograft", "settings": "prostate cancer xenograft model; preliminary preclinical studies; cited from earlier work"}, "[9]": {"settings": "variety of human prostate cancer cell lines"}}, "data": [{"smiles": "COc1ccc(/C=N/NC(=O)CSc2nc3ccccc3[nH]2)cc1", "note": "[GMC1, 2-(1H-benzimidizol-2-ylsulfanyl)-N—[(Z)-(4methoxyphenyl)methylideneamino]acetamide]", "values": [{"measurement": "inhibition of AR-mediated reporter gene expression", "setting": "AR", "result": "most potent inhibition"}, {"measurement": "inhibition of FKBP52-regulated GR activity (effective concentration range)", "setting": "GR", "result": "high nanomolar range"}, {"measurement": "inhibition of FKBP52-regulated AR activity (effective concentration range)", "setting": "[1]", "result": "high nanomolar range"}, {"measurement": "inhibition of AR-dependent PSA expression (ELISA)", "setting": "[2]", "result": "inhibits"}, {"measurement": "inhibition of hormone-independent PSA secretion (ELISA)", "setting": "[3]", "result": "inhibits"}, {"measurement": "inhibition of AR-dependent (hormone-dependent) PSA expression/secretion (ELISA)", "setting": "[3]; with hormone", "result": "inhibits"}, {"measurement": "inhibition of hormone-independent PSA gene expression (qPCR)", "setting": "[4]", "result": "inhibits"}, {"measurement": "inhibition of hormone dependent proliferation (BrdU incorporation)", "setting": "[5]", "result": "inhibits"}]}, {"smiles": "O=C(Nc1cccc(Cl)c1Cl)C1CCCCC1", "note": "[MJC13]", "values": [{"measurement": "inhibition of hormone-independent PSA secretion (ELISA)", "setting": "[3]", "result": "not"}, {"measurement": "inhibition of hormone-independent PSA gene expression (qPCR)", "setting": "[4]", "result": "not"}, {"measurement": "effect on β-catenin interaction with AR", "setting": "[6]", "result": "abrogates"}, {"measurement": "effective drug concentrations (AR BF3 surface targeting)", "setting": "[7]", "result": "low micromolar range"}, {"measurement": "block of AR signaling", "setting": "[7]; [9]", "result": "effectively block"}, {"measurement": "block of AR-dependent cancer cell proliferation", "setting": "[7]; [9]", "result": "effectively block"}, {"measurement": "effects on tumor growth", "setting": "[8]", "result": "impressive effects on tumor growth"}]}]}
